A short description of the data set: Acute intervention: nutrikinetics of plasma metabolites after ingestion of O. europaea extract (untargeted HPLC-ESI-QTOF-MS). As to the method:
A total of 25 healthy individuals participated, with an average age of 27 ± 9 years and a mean body mass index (BMI) of 23 ± 3 kg/m^2. None of the participants were taking any medications or nutritional supplements nor did they have any chronic diseases or gastrointestinal issues. The sample size was established based on findings from previous bioavailability research.[14] All participants provided informed consent before participating in the study.
The intervention study was carried out at Miguel Hernández University. Following an overnight fast, the volunteers were categorized into the subsequent groups: a subgroup to evaluate the LC leaf extract (n = 8), another for the OE leaf extract (n = 8), and the placebo subgroup (n = 9). This was a double-blind study, in which sample collection and treatment were carried out uniformly across all three subgroups.
Water was provided ad libitum. Prior to the ingestion of the capsule, a nurse inserted a cannula into the ulnar vein of each volunteer’s nondominant arm, and blood samples were drawn into EDTA-coated tubes at baseline (t = 0). Blood samples were then collected at 0.5, 1, 2, 4, 6, 8, and 10 h after the consumption of the 500 mg capsule. Plasma was separated through centrifugation (10 min at 3000 rpm and 4 °C) and stored at −80 °C until further analysis.
Plasma samples were initially treated using a mixture of methanol and ethanol (50:50; v:v) to remove proteins, following previously reported protocols.[19] During the sample treatment, pooled quality controls (pooled-QC) were prepared by combining equal aliquots from each sample. These QC samples were processed by using the same protocols as the experimental biological samples.
A reversed-phase analytical C18 column (Agilent Zorbax Eclipse Plus, 1.8 μm, 4.6 × 150 mm^2) with a protective cartridge with the same packing was used. MS data were acquired in negative ionization mode, operating in full scan across a mass-to-charge ratio (m/z) range of 50–1700. The analytical method used was adapted from that described by Villegas-Aguilar et al.[19]
Metabolite nutrikinetics were studied using PKSolver, an add-in program for pharmacokinetic data analysis in Microsoft Excel. The time to reach the maximum concentration (observed Tmax) was calculated for each significant metabolite. As an untargeted metabolomic approach was used to detect the circulating metabolites, these were not quantified. Therefore, the maximum concentration (Cmax) and area under the curve (AUC) parameters were calculated in a relative way by using the deconvoluted chromatographic areas. […] Statistical differences were determined by unpaired t tests. All p values less than 0.05 were considered statistically significant.

Where [1] appears, read: 0.5 h after O. europaea extract.
[2] abbreviates: human plasma, 500 mg capsule of O. europaea (OE) extract, oral, mean ± SD.

Take `CC(=O)Oc1cc2c(c(C)c1OC(C)=O)CC=C1[C@@]2(C)CC[C@@]2(C)C3C[C@](C)(C(=O)O)CC[C@]3(C)CC[C@]12C` (stereo partly drawn) [dihydrocelastryl diacetate]: under setting [1], the “mean chromatographic area in plasma, T0.5” value stood at 0. The “mean chromatographic area in plasma, T1” value (1 h after O. europaea extract) came to 38. In addition, the “mean chromatographic area in plasma, T2” value (2 h after O. europaea extract) stood at 150. In addition, the “mean chromatographic area in plasma, T4” value (4 h after O. europaea extract) is on record as 163. Besides, the “mean chromatographic area in plasma, T6” value (6 h after O. europaea extract) was 81. The “mean chromatographic area in plasma, T8” value (8 h after O. europaea extract) is on record as 38. In addition, under “10 h after O. europaea extract”, the “mean chromatographic area in plasma, T10” value stood at 20. Under setting [2], the “Cmax: relative maximum plasma level” value is 239 ± 78 relative chromatographic area and the “observed Tmax: time required to reach Cmax” value (“observed Tmax: time required” below) amounted to 3 ± 1 h.
Consider `COc1cc(CCC(=O)O)ccc1O[C@@H]1O[C@H](C(=O)O)[C@@H](O)[C@H](O)[C@H]1O` [dihydroferulic acid 4-O-glucuronide], for which, under “human, in vivo, po, 500 mg”, the “Cmax: relative maximum plasma level” value was 171 ± 110 relative chromatographic area and the “observed Tmax: time required” value amounted to 2 ± 2 h. For the setting “in vivo”, the “mean chromatographic area in plasma, T0.5” value was 74; the “mean chromatographic area in plasma, T1” value is recorded as 114; the “mean chromatographic area in plasma, T2” value is 94; the “mean chromatographic area in plasma, T4” value worked out at 113. For the setting “in vivo”, the “mean chromatographic area in plasma, T6” value worked out at 109; the “mean chromatographic area in plasma, T8” value was determined as 74; the “mean chromatographic area in plasma, T10” value is on record as 41.
For `COc1cc(CCC(=O)O)ccc1OS(=O)(=O)O` [dihydroferulic acid 4-sulfate], for the setting “human, in vivo, po, 500 mg”, the “Cmax: relative maximum plasma level” value is 190 ± 20 relative chromatographic area and the “observed Tmax: time required” value turned out to be 1.3 ± 0.4 h.
Consider `O=C(Oc1cc(O)c2c(c1)O[C@H](c1cc(O)c(O)c(O)c1)[C@H](O)C2)c1cc(O)c(O)c(O)c1` [epigallocatechin 7-O-gallate], for which, under setting [1], the “mean chromatographic area in plasma, T0.5” value worked out at 14. Moreover, the “mean chromatographic area in plasma, T1” value (1 h after O. europaea extract) is recorded as 126. For the same compound, the “mean chromatographic area in plasma, T2” value (2 h after O. europaea extract) was 12. Moreover, the “mean chromatographic area in plasma, T4” value (4 h after O. europaea extract) is on record as 0. Also, the “mean chromatographic area in plasma, T6” value (6 h after O. europaea extract) is 0. In addition, the “mean chromatographic area in plasma, T8” value (8 h after O. europaea extract) amounted to 0. The “mean chromatographic area in plasma, T10” value (10 h after O. europaea extract) came to 0. Also, under setting [2], the “Cmax: relative maximum plasma level” value is recorded as 126 ± 30 relative chromatographic area and the “observed Tmax: time required” value was 1 ± 0 h.
Take `COc1cc(C(=O)O)cc(OC)c1OC` [eudesmic acid]: the “mean chromatographic area in plasma, T0.5” value under setting [1] was 34. Under “1 h after O. europaea extract”, the “mean chromatographic area in plasma, T1” value was 120. In addition, the “mean chromatographic area in plasma, T2” value (2 h after O. europaea extract) amounted to 28. The “mean chromatographic area in plasma, T4” value (4 h after O. europaea extract) came out at 0. In addition, the “mean chromatographic area in plasma, T6” value (6 h after O. europaea extract) came out at 0. Where the note is “8 h after O. europaea extract”, the “mean chromatographic area in plasma, T8” value worked out at 0. Also, the “mean chromatographic area in plasma, T10” value (10 h after O. europaea extract) is listed as 0. Also, under setting [2], the “Cmax: relative maximum plasma level” value is reported as 120 ± 27 relative chromatographic area and the “observed Tmax: time required” value worked out at 1 ± 0 h.
On to `COc1cc(-c2oc3cc(O[C@@H]4O[C@@H](C)[C@H](O)[C@@H](O)[C@H]4O)cc(O)c3c(=O)c2O[C@@H]2O[C@H](CO)[C@@H](O)[C@H](O)[C@H]2O)ccc1O` [isorhamnetin 3-O-glucoside-7-O-rhamnoside], for which the “mean chromatographic area in plasma, T0.5” value under setting [1] is given as 34. Besides, under “1 h after O. europaea extract”, the “mean chromatographic area in plasma, T1” value was determined as 130. For the same compound, the “mean chromatographic area in plasma, T2” value (2 h after O. europaea extract) amounted to 14. Also, the “mean chromatographic area in plasma, T4” value (4 h after O. europaea extract) is 0. For the same compound, for the setting “6 h after O. europaea extract”, the “mean chromatographic area in plasma, T6” value is given as 0. The “mean chromatographic area in plasma, T8” value (8 h after O. europaea extract) stood at 0. Where the note is “10 h after O. europaea extract”, the “mean chromatographic area in plasma, T10” value stood at 0. Besides, under setting [2], the “Cmax: relative maximum plasma level” value is on record as 133 ± 18 relative chromatographic area and the “observed Tmax: time required” value turned out to be 0.9 ± 0.2 h.
For the compound `C/C=C1/[C@H](O[C@@H]2O[C@H](CO)[C@@H](O)[C@H](O)[C@H]2O)OC=C(C(=O)OC)[C@H]1CC(=O)OCCc1ccc(O)c(O)c1` [oleuropein], the “detection in plasma samples” value (in vivo) was “not detected as being significant in plasma samples”.
Turning to `C=Cc1ccc(O)c(OC)c1` [p-vinylguaiacol], under “human, in vivo, po, 500 mg”, the “Cmax: relative maximum plasma level” value is listed as 184 ± 45 relative chromatographic area and the “observed Tmax: time required” value is listed as 1 ± 0 h. Also, for the setting “in vivo”, the “mean chromatographic area in plasma, T0.5” value is 90; the “mean chromatographic area in plasma, T1” value is 184; the “mean chromatographic area in plasma, T2” value came out at 83; the “mean chromatographic area in plasma, T4” value is listed as 0. Further, under “in vivo”, the “mean chromatographic area in plasma, T6” value worked out at 0; the “mean chromatographic area in plasma, T8” value is on record as 0; the “mean chromatographic area in plasma, T10” value amounted to 0.
In the case of `COc1cc(C(=O)O)ccc1OC1OC(C(=O)O)C(O)C(O)C1O` (stereo not drawn) [vanillic acid glucuronide], the “mean chromatographic area in plasma, T0.5” value under setting [1] is listed as 0. Further, for the setting “1 h after O. europaea extract”, the “mean chromatographic area in plasma, T1” value turned out to be 37. In addition, the “mean chromatographic area in plasma, T2” value (2 h after O. europaea extract) is recorded as 77. Besides, where the note is “4 h after O. europaea extract”, the “mean chromatographic area in plasma, T4” value came to 63. Also, the “mean chromatographic area in plasma, T6” value (6 h after O. europaea extract) is reported as 44. Further, for the setting “8 h after O. europaea extract”, the “mean chromatographic area in plasma, T8” value was determined as 22. For the same compound, the “mean chromatographic area in plasma, T10” value (10 h after O. europaea extract) was 0. Further, under setting [2], the “Cmax: relative maximum plasma level” value is recorded as 111 ± 48 relative chromatographic area and the “observed Tmax: time required” value is listed as 4 ± 3 h.
As for `COc1cc(C=O)ccc1O[C@@H]1O[C@H](C(=O)O)[C@@H](O)[C@H](O)[C@H]1O` [vanillin glucuronide], under “human, in vivo, po, 500 mg”, the “Cmax: relative maximum plasma level” value was 180 ± 66 relative chromatographic area and the “observed Tmax: time required” value worked out at 1 ± 0 h. For the same compound, where the note is “in vivo”, the “mean chromatographic area in plasma, T0.5” value is 60; the “mean chromatographic area in plasma, T1” value came to 180; the “mean chromatographic area in plasma, T2” value came to 121; the “mean chromatographic area in plasma, T4” value turned out to be 40. For the same compound, where the note is “in vivo”, the “mean chromatographic area in plasma, T6” value was 11; the “mean chromatographic area in plasma, T8” value was 0; the “mean chromatographic area in plasma, T10” value turned out to be 0.
In the case of `O=c1cc(-c2ccc(O)cc2)oc2c([C@@H]3O[C@H](CO)[C@@H](O)[C@H](O)[C@H]3O)c(O)c([C@@H]3O[C@H](CO)[C@@H](O)[C@H](O)[C@H]3O)c(O)c12` [vicenin-2], for the setting “human, in vivo, po, 500 mg”, the “Cmax: relative maximum plasma level” value was 137 ± 59 relative chromatographic area and the “observed Tmax: time required” value turned out to be 1 ± 0 h. In addition, for the setting “in vivo”, the “mean chromatographic area in plasma, T0.5” value came to 34; the “mean chromatographic area in plasma, T1” value was 137; the “mean chromatographic area in plasma, T2” value is given as 46; the “mean chromatographic area in plasma, T4” value is on record as 0. Where the note is “in vivo”, the “mean chromatographic area in plasma, T6” value came out at 0; the “mean chromatographic area in plasma, T8” value was determined as 0; the “mean chromatographic area in plasma, T10” value is on record as 0.
For the compound desoxy elenolic acid, for the setting “human, in vivo, po, 500 mg”, the “Cmax: relative maximum plasma level” value is on record as 124 ± 24 relative chromatographic area and the “observed Tmax: time required” value is reported as 1.1 ± 0.4 h. For the same compound, where the note is “in vivo”, the “mean chromatographic area in plasma, T0.5” value was determined as 56; the “mean chromatographic area in plasma, T1” value amounted to 123; the “mean chromatographic area in plasma, T2” value is given as 35; the “mean chromatographic area in plasma, T4” value is recorded as 0. Besides, where the note is “in vivo”, the “mean chromatographic area in plasma, T6” value was found to be 0; the “mean chromatographic area in plasma, T8” value came out at 0; the “mean chromatographic area in plasma, T10” value was determined as 0.
Consider “homovanillyl alcohol glucuronide [homovanillyl alcohol glucuronide isomer 1]”, for which, where the note is “0.5 h after O. europaea extract, listed as homovanillic alcohol glucuronide isomer 1”, the “mean chromatographic area in plasma, T0.5” value is 274. Also, the “mean chromatographic area in plasma, T1” value (1 h after O. europaea extract, listed as homovanillic alcohol glucuronide isomer 1) came to 503. Also, the “mean chromatographic area in plasma, T2” value (2 h after O. europaea extract, listed as homovanillic alcohol glucuronide isomer 1) is given as 372. Besides, the “mean chromatographic area in plasma, T4” value (4 h after O. europaea extract, listed as homovanillic alcohol glucuronide isomer 1) is recorded as 183. The “mean chromatographic area in plasma, T6” value (6 h after O. europaea extract, listed as homovanillic alcohol glucuronide isomer 1) is recorded as 66. Further, the “mean chromatographic area in plasma, T8” value (8 h after O. europaea extract, listed as homovanillic alcohol glucuronide isomer 1) amounted to 26. The “mean chromatographic area in plasma, T10” value (10 h after O. europaea extract) worked out at 0. Under setting [2], the “Cmax: relative maximum plasma level” value is 504 ± 154 relative chromatographic area and the “observed Tmax: time required” value was 1.1 ± 0.3 h.
